Measurements reported in the supplement of paper PMC10702517.
± gives the standard deviation.

Test: chemical recovery from spiked human plasma; higher = better extraction
Conditions: pooled human plasma
[1] = extraction method: PES+SPE (3 d PDMS equilibration then HLB SPE)
[2] = extraction method: SPE only (HLB 96-well)
[3] = extraction method: solvent precipitation (ACN + hexane)
[4] = extraction method: SPE only (HLB 96-well), PES comparison experiment

Structure (SMILES) | chemical recovery [1] [%] | chemical recovery [2] [%] | chemical recovery [3] [%] | chemical recovery [4] [%]
Cc1cnc2ccc3c(nc(N)n3C)c2n1 [2-Amino-3,8-dimethylimidazo-[4,5-f]quinoxaline (MeIQx)] | 48.7 ± 6 | 49.1 ± 2.6 | 72.4 ± 3.3 | –
CCCCCCCCSc1nc(Nc2cc(C(C)(C)C)c(O)c(C(C)(C)C)c2)nc(SCCCCCCCC)n1 [Irganox-565] | – | 0.236 ± 0.16 | – | –
CCCN(CCC)C(=O)SCc1ccccc1 [Prosulfocarb] | – | 33.6 ± 4.5 | 72.6 ± 6.4 | 35.1 ± 6
CN1CCCC1=O [N-Methyl-2-pyrrolidone] | – | – | 1.36 ± 2.4 | –
CCCCCCCCCC[N+](C)(C)Cc1ccccc1 [Benzyldimethyldecylammonium] | – | – | 66.1 ± 3.3 | –
CC(Cl)CN(C)C (stereo not given) [2-Chloropropyldimethylamine] | 0.712 ± 0.094 | 1.1 ± 0.73 | – | –
Oc1ccc(Cl)c2cccnc12 [5-Chloro-8-hydroxyquinoline] | 2.63 ± 3.2 | 12.2 ± 4.9 | – | –
O=C(O)COc1nc(Cl)c(Cl)cc1Cl [Triclopyr] | 43 ± 3.5 | 37 ± 3.9 | 70.3 ± 2.9 | –
Cn1cc(C(=O)Nc2ccccc2-c2cc(F)c(F)c(F)c2)c(C(F)F)n1 [Fluxapyroxad] | 69.6 ± 10 | 65 ± 3 | 79.9 ± 1.2 | –
CNS(=O)(=O)c1ccccc1 [N-Methylbenzenesulfonamide] | – | – | 77.4 ± 3.4 | –
Nc1nc(N)nc(N)n1 [Melamine] | 2.47 ± 0.79 | 1.58 ± 0.33 | – | 0.589 ± 1.2
Oc1c(Br)cc(Br)cc1Br [2,4,6-Tribromophenol] | 46.9 ± 0.63 | 35 ± 8.7 | 55.2 ± 4.1 | –
CNC(=C[N+](=O)[O-])NCCSCc1ccc(CN(C)C)o1 [Ranitidine] | – | – | 65.6 ± 6.1 | –
CC(NC(C)(C)C)C(=O)c1cccc(Cl)c1 (stereo not given) [Bupropion] | 0.191 ± 0.047 | 37.7 ± 3.8 | 23.5 ± 3.1 | 38.7 ± 8.2
COc1cc(OC)nc(NC(=O)NS(=O)(=O)c2cc(NC=O)ccc2C(=O)N(C)C)n1 [Foramsulfuron] | – | – | 69 ± 4.2 | –
N#Cc1cc(Cl)c(O)c(Cl)c1 [Chloroxynil] | 59 ± 2.5 | 46.1 ± 5.2 | 74.3 ± 3.8 | –
Cn1c(N)nc2ncc(-c3ccccc3)cc21 [2-Amino-1-methyl-6-phenylimidazo[4,5-b]pyridine-(PhIP)] | 49 ± 2.1 | 45.2 ± 2.2 | 70.9 ± 3.6 | –
CC(C)(C)c1cc(Cn2c(=O)n(Cc3cc(C(C)(C)C)c(O)c(C(C)(C)C)c3)c(=O)n(Cc3cc(C(C)(C)C)c(O)c(C(C)(C)C)c3)c2=O)cc(C(C)(C)C)c1O [Antioxidant-3114] | – | 5.69 ± 2.6 | 58.4 ± 13 | –
CCCCCCCCCCCCCC[N+](C)(C)C [Tetradecyltrimethylammonium] | – | 94.4 ± 29 | – | –
COC(=O)CC(O)(CC(=O)OC)C(=O)OC [Trimethylcitrate] | 24.5 ± 2.7 | 30.7 ± 4.5 | 12.5 ± 2.5 | –
Nc1ccccc1 [Aniline] | 4.94 ± 0.92 | 4.14 ± 2.7 | – | –
COc1cccc([C@@]2(O)CCCC[C@@H]2CN(C)C)c1 [Tramadol] | 31.3 ± 3.1 | 31.2 ± 2.6 | – | –
N#Cc1c[nH]cc1-c1cccc2c1OC(F)(F)O2 [Fludioxonil] | 67.2 ± 4.7 | 40.1 ± 3.5 | 51.4 ± 2.9 | –
NC(=O)C1(N2CCCCC2)CCN(CCCC(=O)c2ccc(F)cc2)CC1 [Pipamperone] | 4.98 ± 1.1 | 28.3 ± 3.7 | 71.4 ± 4.4 | –
CC(C)c1ccc2cc(C(C)C)ccc2c1 [2,6-Diisopropylnaphthalene] | – | – | – | 16.8 ± 6.9
